Data: PubChem BioAssay AID2128 (The Scripps Research Institute Molecular Screening Center, 2009)

Biological target: Beta-lactamase (Pseudomonas aeruginosa) (UniProt Q932Y6)
Experiment: Ki and modality of VIM-2 inhibitors – biochemical, probe results, mechanism study, late-stage follow-up (AID 2128)
Details: purified enzyme, nitrocefin hydrolysis absorbance/fluorescence, enzyme assay, VIM-2 inhibition constant, kinetics

`O=c1[nH]c2c(s1)C(c1cccnc1)C1C3CCC(C3)C1S2` (stereo unspecified) showed a Ki of 0.148 µM.
